Assay results: patent publication US12109207B2, “Methods of using 4(1H)-quinolone derivatives” (Academia Sinica, priority 2019, dated 2024)
Where two headings read alike, the source gives them in different places. Each block holds one molecule with its values, some of them ahead of it.

Legend:
Purified porcine tubulin = target: T1, Purified porcine tubulin (Sus scrofa, UniProt P02554); test: In vitro tubulin polymerization assay; format: biochemical; conditions: 5 μM, A340 every min for 1 h at 37° C.
T1 construct: purchased Cytoskeleton
Experimental: Reagents from a Tubulin Polymerization Assay kit (Cytoskeleton) were used according to the manufacturer's instructions. Purified porcine tubulin (4 mg/mL; >99% purity) in G-PEM buffer (80 mM PIPES, 2 mM MgCl2, 0.5 mM EGTA, 1 mM GTP, 15% glycerol, pH 6.9) was mixed with each test compound in the wells of a 96-well plate. Then, the A340 value was recorded each minute for 1 h at 37° C. with the VersaMax microplate reader.

[1] = target: colchicine site of tubulin (Sus scrofa, UniProt P02554); test: Colchicine competition assay; format: binding; conditions: 37° C. for 1 h
Experimental: Tubulin ([…]) and colchicine ([…]) were incubated with the various concentrations of AS1712, nocodazole, or vincristine in 80 mM PIPES, 2 mM MgCl2, 0.5 mM EGTA, pH 6.9 at 37° C. for 1 h. Fluorescence intensities (excitation and emission wavelengths at 365 and 435 nm, respectively) were recorded using an Infinite M200 plate reader (Tecan). Fluorescence values were normalized to the DMSO control.

tubulin = tubulin (Sus scrofa, UniProt P02554); test: Limited proteolysis assay; format: binding; conditions: 100 μM, 30 min at 30° C.
Experimental: Tubulin (1 mg/mL) was incubated individually with a test compound for 30 min at 30° C. in 0.1 M morpholino ethanesulfonic acid, 1 mM MgCl2, 1 mM EGTA, pH 6.9, and then 25 μg/mL trypsin (TPCK-treated, Sigma Aldrich; 1:40 [w/w] trypsin/tubulin) was added to the solution for a 10-min digestion at 4° C. Samples were electrophoresed through a 15% SDS-PAGE gel and stained with Coomassie brilliant blue R250. The images were scanned and quantified using a BioSpectrum Imaging System (UVP).

CCRF-CEM = test: Cell cytotoxicity assay (MTS), CCRF-CEM; format: cell-based; conditions: Homo sapiens
Experimental: (§1) Cells were seeded into the wells of 96-well plates (2000 cells/well). After an overnight culture, the cells were treated with different concentrations of a compound for 72 h. The CellTiter 96 AQueous one-solution cell proliferation assay (MTS) reagent was used to determine cytotoxicity. After treatment with a compound, 20 μL of the MTS reagent was added to each well and the plates were incubated at 37° C. for 1-4 h. Next, the absorbance at 490 nm of the culture medium in each well was determined using a VersaMax microplate reader (Molecular Devices).

H1975 cells = test: Cell cytotoxicity assay (MTS), H1975; format: cell-based, human; conditions: Homo sapiens, read-out: IC50
Experimental: as §1

HDQP1/TAX = test: Cell cytotoxicity assay, HDQP1/TAX; format: cell-based, human
Experimental: as §1

37T = test: Cell cytotoxicity assay (MTS), 37T; format: cell-based; conditions: Homo sapiens, 72 h
Experimental: as §1

CEM/VBL = test: Cell cytotoxicity assay (MTS), CEM/VBL; format: cell-based, human; conditions: for RF, resistance factor (IC50 in resistant cell line/IC50 in parent cell line): CEM/VBL vs CCRF-CEM; for IC50: Homo sapiens, CEM/VBL, P-gp overexpressing, vinblastine-selected CCRF-CEM subline
Experimental: as §1

MDA-MB-231 = test: Cell cytotoxicity assay (MTS), MDA-MB-231; format: cell-based; conditions: Homo sapiens, MDA-MB-231, 72 h
Experimental: as §1

P-gp expression = P-gp expression immunoblotting in KBtax cells; format: cell-based, human; conditions: 24 h
Experimental: The cells were harvested and lysed in RIPA buffer (20 mM Tris-HCl, 150 mM NaCl, 1 mM Na2EDTA, 1% sodium deoxycholate, 1% IGEPAL CA-630, 0.1% SDS, pH 7.5) with protease inhibitors (Roche). Protein concentration was measured by the BCA assay. For immunoprecipitation, protein extracts were incubated with mag-beads-AS1712 or mag-beads-control at 4° C. overnight and then washed five times with PBS before immunoblotting. For immunoblotting, equivalent amounts of denatured proteins were separated through SDS-PAGE gels and then transferred to PVDF membranes (Millipore), which were each blocked with 5% nonfat milk in PBS and 0.1% Tween-20 (Sigma Aldrich) for 1 h. Then each membrane was incubated with a primary antibody overnight at 4° C., followed by incubation with a horseradish peroxidase conjugated secondary antibody for 1 h at room temperature. The signal was visualized by enhanced chemiluminescence detection, and images were acquired using a BioSpectrum Imaging System (UVP).

[2] = Body mass and serum biochemical markers, KBtax xenograft mice; format: in vivo, BALB/c nude mice
Experimental: The body mass of each animal and tumor volumes were measured before each drug delivery. Tumor volume was calculated as 0.5W^2L (with W being the width of the smaller diameter and L being the length of the larger diameter). The animal experiment was carried out in accordance with the procedures and guidelines of the Institutional Animal Care and Use Committee, Institute of Biomedical Sciences, Academia Sinica.

[3] = Body mass and serum biochemical markers, H1975 xenograft mice; format: in vivo, BALB/c nude mice; conditions: 4 or 8 mg/kg i.p. three times a week, end of experiment
Experimental: (§2) Using the H1975, MDA-MB-231, and KBtax xenograft models, tumors were established after inoculation into the right flanks of 6-week-old BALB/c nude mice (NARLabs, Taipei, Taiwan). After establishment of the tumors, vehicle and test compounds, which had been dissolved in DMSO, were each injected intraperitoneally into a separate group of animals three times per week. The body mass of each animal and tumor volumes were measured before each drug delivery. Tumor volume was calculated as 0.5W^2L (with W being the width of the smaller diameter and L being the length of the larger diameter). The animal experiment was carried out in accordance with the procedures and guidelines of the Institutional Animal Care and Use Committee, Institute of Biomedical Sciences, Academia Sinica.

[4] = test system: human fibroblast (HFB) cells; test: Cell cytotoxicity assay (MTS), human fibroblast; format: cell-based; conditions: normal cell line HFB
Experimental: as §1

KBtax xenograft tumors = test: KBtax xenograft tumor model; format: in vivo, BALB/c nude mice
Experimental: as §2

HDQP1 = test: Cell cytotoxicity assay, HDQP1; format: cell-based; conditions: Homo sapiens, HDQ-P1; TNBC cell line HDQP1
Experimental: as §1

BT-549 = test: Cell cytotoxicity assay (MTS), BT-549; format: cell-based; conditions: Homo sapiens, BT-549, 72 h
Experimental: as §1

[5] = Body mass, MDA-MB-231 xenograft mice; format: in vivo, BALB/c nude mice; conditions: 4 or 8 mg/kg i.p. three times a week, 35 days
Experimental: as §2

[6] = test system: MDA-MB-231 xenograft tumors; test: MDA-MB-231 xenograft tumor model; format: in vivo, BALB/c nude mice; conditions: day 35
Experimental: as §2

82T = test: Cell cytotoxicity assay (MTS), 82T; format: cell-based; conditions: Homo sapiens, 72 h
Experimental: as §1

H1975 xenograft tumor = H1975 xenograft tumor model; format: in vivo, BALB/c nude mice; conditions: day 21
Experimental: as §2

P-gp = target: T2, P-gp (Homo sapiens, UniProt P08183); test: Rhodamine efflux assay; format: cell-based; conditions: KBtax cells
T2 construct: KBtax, KBvin, and CEM/VBL cancer cell lines, which overexpress P-gp; endogenous in cells; host or cells: KBtax cells (paclitaxel-selected subline of human KB)
Experimental: KBtax cells (2.5×10^5/test) were collected and held on ice for 1 h in cold medium with […] rhodamine. Then, the cells were resuspended in medium warmed to 37° C. with one of the indicated compounds and incubated for 1 h in a water bath at the same temperature for efflux determination. The fluorescence intensities were quantified by FACSCanto flow cytometry.

TNBC cell lines = test: Cytotoxicity against triple-negative breast cancer cell lines; format: cell-based; conditions: Homo sapiens; BT-549, Hs578t, MDA-MB-231, 37T, 82T; 72 h MTS; read-out: IC50 values in different TNBC cell lines
Experimental: as §1

Hs578t = test: Cell cytotoxicity assay (MTS), Hs578t; format: cell-based; conditions: Homo sapiens, Hs-578T, 72 h
Experimental: as §1

KB = test: Cell cytotoxicity assay (MTS), KB; format: cell-based; conditions: Homo sapiens
Experimental: as §1

KBvin = test: Cell cytotoxicity assay (MTS), KBvin; format: cell-based, human; conditions: for IC50: Homo sapiens, KBvin, P-gp overexpressing, vincristine-selected KB subline; for RF, resistance factor (IC50 in resistant cell line/IC50 in parent cell line): KBvin vs KB
Experimental: as §1

KBtax = test: Cell cytotoxicity assay (MTS), KBtax; format: cell-based, human; conditions: for IC50: Homo sapiens, KBtax, P-gp overexpressing, paclitaxel-selected KB subline
Experimental: as §1

[7] = end of experiment, paclitaxel 15 mg/kg, RJ-LC-15-8 8 mg/kg, mean ± SEM
[8] = 4 mg/kg intraperitoneally three times a week
[9] = 8 mg/kg intraperitoneally three times a week

SMILES: COC(=O)Nc1nc2ccc(C(=O)c3cccs3)cc2[nH]1 [nocodazole]
- tubulin polymerization (Purified porcine tubulin): inhibit tubulin polymerization
- colchicine fluorescence [1]: decreased the colchicine fluorescence in a dose-dependent manner
- tryptic pattern after limited trypsin digestion (tubulin): produced an increased amount of βcol

- tubulin polymerization (Purified porcine tubulin): direct inhibition
- Body mass and serum biochemical markers for liver and kidney functions ([2]; 8 mg/kg, end of the experiment): not negatively affected
- BUN [2, 7]: 18.2 ± 1 mg/dL
- Cre [2, 7]: 0.26 ± 0.04 mg/dL
- body mass [3]: not affected
- body mass [5]: did not affect
- P-gp pump activity (P-gp): did not directly inhibit
SMILES: CCOC(=O)c1ccc2[nH]c(-c3cccc(F)c3)cc(=O)c2c1 [RJ-LC-15-8, Ethyl 2-(3-fluorophenyl)-4-oxo-1,4-dihydroquinoline-6-carboxylate]
- IC50 (CCRF-CEM): 20 ± 1.71 nM
- IC50 (H1975 cells; NCI-H1975, 72 h, H1975 cells, 72 h, MTS): 24 nM
- IC50 (H1975 cells; NCI-H1975, Table 8, cell line not given, values match H1975): 24 ± 1 nM
- RF, resistance factor (IC50 in resistant cell line/IC50 in parent cell line) (HDQP1/TAX; HDQP1/TAX vs HDQP1): 1.02
- IC50 (HDQP1/TAX; Homo sapiens, HDQ-P1, Paclitaxel-resistant subline): 40 ± 3.26 nM
- IC50 (37T): 22 ± 0.61 nM
- RF, resistance factor (IC50 in resistant cell line/IC50 in parent cell line) (CEM/VBL): 0.8
- IC50 (CEM/VBL): 16 ± 0.52 nM
- IC50 (MDA-MB-231): 35 ± 1.45 nM
- P-gp expression (P-gp expression): did not affect
- ALT (IU/L) [2, 7]: 64 ± 10.8 IU/L
- AST(IU/L) [2, 7]: 120.7 ± 27.5 IU/L
- IC50 [4]: > 10000 nM
- TUNEL staining of the tumor tissues (KBtax xenograft tumors; 8 mg/kg, 21 days): induced apoptosis
- average tumor size (KBtax xenograft tumors; after 21 days, i.p. three times a week, paclitaxel 15 mg/kg, RJ-LC-15-8 8 mg/kg): 528.4±101.6 mm^3
- IC50 (HDQP1): 39 ± 0.49 nM
- IC50 (BT-549): 21 ± 1.14 nM
- average tumor size [6, 8]: 105±9.4 mm^3
- average tumor size [6, 9]: 73.6±8.2 mm^3
- IC50 (82T): 23 ± 1.27 nM
- average tumor size (H1975 xenograft tumor; [8]): 1333±121.9 mm^3
- average tumor size (H1975 xenograft tumor; [9]): 972.5±52.3 mm^3
- IC50 (TNBC cell lines): 21 to 35 nM
- IC50 (Hs578t): 34 ± 4.71 nM
- IC50 (KB): 34 ± 0.39 nM
- IC50 (KBvin): 35 ± 0.88 nM
- RF, resistance factor (IC50 in resistant cell line/IC50 in parent cell line) (KBvin): 1
- IC50 (KBtax): 30 ± 1.35 nM
- RF, resistance factor (IC50 in resistant cell line/IC50 in parent cell line) (KBtax; KBtax vs KB): 0.88

- tubulin polymerization (Purified porcine tubulin): inhibit tubulin polymerization
- colchicine fluorescence [1]: did not
SMILES: CC[C@]1(O)C[C@H]2CN(CCc3c([nH]c4ccccc34)[C@@](C(=O)OC)(c3cc4c(cc3OC)N(C=O)[C@H]3[C@@](O)(C(=O)OC)[C@H](OC(C)=O)[C@]5(CC)C=CCN6CC[C@]43[C@@H]65)C2)C1 [Vincristine, vincristine]
- IC50 (CCRF-CEM): 3 ± 0.04 nM
- RF, resistance factor (IC50 in resistant cell line/IC50 in parent cell line) (CEM/VBL): 440
- IC50 (CEM/VBL): 1320 ± 20.6 nM
- tryptic pattern after limited trypsin digestion (tubulin): decreased the amount of the βcol, αN, and αC fragments
- IC50 (KB): 5 ± 0.31 nM
- IC50 (KBvin): 817 ± 47.4 nM
- RF, resistance factor (IC50 in resistant cell line/IC50 in parent cell line) (KBvin): 163
- IC50 (KBtax): 49 ± 2.96 nM
